The test concerns HCT116 cell line (colorectal cancer). In words: Anti-proliferative activity assay (WST-8). The test is classed as cell-based. The following applies: Homo sapiens, HCT-116, 96 h; in vitro growth of HCT116, 4 days incubation, WST-8, concentration yielding 50% OD of control growth. As for the experimental part: A single suspension of tumor cells was inoculated to the serially diluted 96-well microtestplate. Then the testplate was incubated in the 5% CO2 ambience at 37° C. for 4 days (2-3×10^3 cells/well). The degree of cell growth in a monolayer was measured by using WST-8 (Dojindo, Japan). IC50 values of the polycyclic compounds directed against tumor cells were calculated as the concentration of drug yielding 50% OD of the control growth.
The anti-tumor activity of polycyclic compounds of the formula [I] against in vitro growth of HCT116 cell line (colorectal cancer) is summarized in Table 1.
For orientation: Tetrazolium assays rely on reduction of a dye to a coloured formazan, in cell work by metabolically active cells.

Drawing on patent publication US6946472B2, “Polycyclic compounds exhibiting anti-tumor activities” (Hoffman-La Roche Inc., priority 2002, dated 2005), this text covers IC50 for 6 molecules.

For `CN(CCCN(C)CCNc1nc2ccccc2c2c1C(=O)c1ccncc1-2)CCNc1nc2ccccc2c2c1C(=O)c1ccncc1-2` [Example 10, 6-{2-[methyl-(3-{methyl-[2-(7-oxo-7H-5,10-diaza-benzo[c]fluoren-6-ylamino)-ethyl]-amino}-propyl)-amino]-ethylamino}-5,10-diaza-benzo[c]fluoren-7-one], the IC50 (in general, the concentration that inhibits the measured activity by half) amounted to 0.3 nM.

The molecule `CN(CCCN(C)CCNc1nc2ccccc2c2c1C(=O)c1ccncc1-2)CCNc1nc2ccccc2c2c1C(=O)c1cnccc1-2` [Example 15, 6-{2-[methyl-(3-{methyl-[2-(7-oxo-7H-5,10-diaza-benzo[c]fluoren-6-ylamino)-ethyl]-amino}-propyl)-amino]-ethylamino}-5,9-diaza-benzo[c]fluoren-7-one] yielded an IC50 of 0.13 nM.

The molecule `CN(C)CCNc1nc2cc(O)ccc2c2c1C(=O)c1ccccc1-2` [Reference compound, 6-(2-dimethylamino-ethylamino)-3-hydroxy-7H-indeno[2,1-c]quinolin-7-one, reference compound] gave an IC50 of 12 nM.

For `CN(CCCN(C)CCNc1nc2ccccc2c2c1C(=O)c1cnccc1-2)CCNc1nc2ccccc2c2c1C(=O)c1cnccc1-2` [Example 5, 6-{2-[methyl-(3-{methyl-[2-(7-oxo-7H-5,9-diaza-benzo[c]fluoren-6-ylamino)-ethyl]-amino}-propyl)-amino]-ethylamino}-5,9-diaza-benzo[c]fluoren-7-one], the IC50 turned out to be 0.64 nM.

The molecule `CN(CCCN(C)CCNc1nc2cc(Cl)ccc2c2c1C(=O)c1cnccc1-2)CCNc1nc2cc(Cl)ccc2c2c1C(=O)c1cnccc1-2` [Example 6, 3-chloro-6-{2-[(3-{[2-(3-chloro-7-oxo-7H-5,9-diaza-benzo[c]fluoren-6-ylamino)-ethyl]-methyl-amino}-propyl)-methyl-amino]-ethylamino}-5,9-diaza-benzo[c]fluoren-7-one] had an IC50 of 0.02 nM.

As to `COc1ccc2c3c(c(NCCN(C)CCCN(C)CCNc4nc5ccccc5c5c4C(=O)c4cnccc4-5)nc2c1)C(=O)c1cnccc1-3` [Example 16, 3-methoxy-6-{2-[methyl-(3-{methyl-[2-(7-oxo-7H-5,9-diaza-benzo[c]fluoren-6-ylamino)-ethyl]-amino}-propyl)-amino]-ethylamino}-5,9-diaza-benzo[c]fluoren-7-one], inhibition was half-maximal at 0.08 nM (IC50).
